Test results reported in article PMC11732879, “Preclinical evaluation of ^225Ac-labeled minigastrin analog DOTA-CCK-66 for Targeted Alpha Therapy” (European Journal of Nuclear Medicine and Molecular Imaging, 2024).
*1 amine or outer side, *2 acyl side, *3 side chain or, on linkers, in order; H or OH if unused. Where a SMILES comes first, the peptide text is derived from it. [ ]: non-standard residue; d: D form. The star is where a group is joined. DOTA = O=C(O)CN1CCN(CC(=O)O)CCN(CC(=O)*)CCN(CC(=O)O)CC1; d(γGlu) = O=C(O)[C@@H](CCC(=O)[*:2])N[*:1]; 1Nal = N[C@@H](Cc1cccc2ccccc12)C(=O)O; NMeNle = CCCC[C@H](NC)C(=O)O; PEG4 = NCCOCCOCCOCCOCCC(=O)O

Columns and labels:
in vivo = assay: in vivo; parameters: species or system 394-NOD SCID mice; settings: 394-NOD SCID, mouse, 1.1 MBq
Description: Static PET/CT images of control group animals were acquired (n = 5) 1 h after injection of [^68Ga]Ga-DOTA-CCK-66 using a preclinical PET/CT scanner (Genisys 8 PET/CT; Sofie Biosciences, Dulles, VA, USA), according to a published procedure. PET image reconstruction was carried out using a maximum-likelihood expectation maximization with 60 iterations. Correction for photon attenuation of all images was performed. Acquisition parameters for CT applications were 40 kVp and […]. Acquired data were analyzed using OsiriX Imaging Software (version 3.9.3; Pixmeo SARL, Bernex, Switzerland).

AR42J tumor = assay: Single-dose treatment study (tumor volume, survival); assay type: in vivo, 394-NOD SCID mice; settings: for Tumor volume: single injection on day 0: [225Ac] 37 kBq (178 pmol), caliper, mean±SD, n=5
Description: AR42J cells (2 × 10^6 cells, 100 µL suspended in Matrigel) were subcutaneously inoculated into the right shoulder region of mice. When tumors reached 30 to 290 mm^3 (14 to 17 d after inoculation), […] into 3 groups (5 per group). On day 0 of the experiment mice received a single-dose injection of either [^68Ga]Ga-DOTA-CCK-66 (1.1 MBq, PET/CT imaging, control cohort), [^177Lu]Lu-DOTA-CCK-66 (37 MBq) or [^225Ac]Ac-DOTA-CCK-66 (37 kBq). Tumor volume (caliper measurements, length^2 × width/2) and body weight of all animals were subsequently monitored twice a week. Animals were sacrificed after reaching one of the end-point criteria (weight loss of more than 20%, tumor volume of more than 2,000 mm^3, ulceration of the tumor, respiratory distress, or change of behavior).

Work on `CCCC[C@@H](C(=O)N[C@@H](CC(=O)O)C(=O)N[C@@H](Cc1cccc2ccccc12)C(N)=O)N(C)C(=O)[C@H](Cc1c[nH]c2ccccc12)NC(=O)CCOCCOCCOCCOCCNC(=O)CC[C@@H](NC(=O)CN1CCN(CC(=O)O)CCN(CC(=O)O)CCN(CC(=O)O)CC1)C(=O)O` [[^68Ga]Ga-DOTA-CCK-66, metal not drawn] ({DOTA-d(γGlu)-PEG4}-W[NMeNle]D[1Nal]-NH2) yielded an SUV at 1 h (in vivo) of 2.02 ± 0.77 SUV.
In the case of `CCCC[C@@H](C(=O)N[C@@H](CC(=O)O)C(=O)N[C@@H](Cc1cccc2ccccc12)C(N)=O)N(C)C(=O)[C@H](Cc1c[nH]c2ccccc12)NC(=O)CCOCCOCCOCCOCCNC(=O)CC[C@@H](NC(=O)CN1CCN(CC(=O)O)CCN(CC(=O)O)CCN(CC(=O)O)CC1)C(=O)O` [[^225Ac]Ac-DOTA-CCK-66] [metal not drawn] ({DOTA-d(γGlu)-PEG4}-W[NMeNle]D[1Nal]-NH2), the “fold increase in mean survival, 225Ac-TAT compared to 177Lu-RLT” value (AR42J tumor; 54 d versus 37 d, p = 0.0003) is reported as 1.5 fold, the Tumor volume (AR42J tumor; day 0, [177Lu] 37 MBq (1.7 nmol), [68Ga] control cohort 1.1 MBq (29 pmol)) is reported as 150±80 mm^3 and the Tumor volume (AR42J tumor; day 3, [177Lu] 37 MBq (1.7 nmol), [68Ga] control cohort 1.1 MBq (29 pmol)) is reported as 170±110 mm^3. For the same compound, the Tumor volume (AR42J tumor; day 7, [177Lu] 37 MBq (1.7 nmol), [68Ga] control cohort 1.1 MBq (29 pmol)) was 130±60 mm^3, the Tumor volume (AR42J tumor; day 10, [177Lu] 37 MBq (1.7 nmol), [68Ga] control cohort 1.1 MBq (29 pmol)) was 100±60 mm^3 and the Tumor volume (AR42J tumor; day 14, [177Lu] 37 MBq (1.7 nmol)) was 100±50 mm^3. It also gave a Tumor volume (AR42J tumor; day 17, [177Lu] 37 MBq (1.7 nmol)) of 100±50 mm^3, a Tumor volume (AR42J tumor; day 21, [177Lu] 37 MBq (1.7 nmol)) of 90±60 mm^3 and a Tumor volume (AR42J tumor; day 24, [177Lu] 37 MBq (1.7 nmol)) of 130±70 mm^3. For the same compound, the Tumor volume (AR42J tumor; day 28, [177Lu] 37 MBq (1.7 nmol)) was 130±80 mm^3, the Tumor volume (AR42J tumor; day 31, [177Lu] 37 MBq (1.7 nmol)) was 160±90 mm^3 and the Tumor volume (AR42J tumor; day 35) was 240±130 mm^3. For the same compound, the Tumor volume (AR42J tumor; day 38) was 470±280 mm^3, the Tumor volume (AR42J tumor; day 42) was 740±430 mm^3 and the Tumor volume (AR42J tumor; day 45) was 1,040±690 mm^3. The Tumor volume (AR42J tumor; day 49) was 1,600±830 mm^3, the Mean survival (AR42J tumor; single dose on day 0: [225Ac] 37 kBq, [177Lu] 37 MBq, [68Ga] 1.1 MBq (control group), n=5 per group) was 54 ± 6 days and the “fold increase in mean survival versus control group” value (AR42J tumor; single dose: [225Ac] 37 kBq, [177Lu] 37 MBq, control 12 ± 3 d) was 4.5 fold.
